Measured values reported in patent EP2177496A1, “New analogs of polysphorin and uses thereof for treating or preventing malaria” (Assistance Publique - Hôpitaux de Paris, priority 2008, dated 2010).

Key:
P. falciparum [1] = test: In vitro activity against erythrocytic stage of P. falciparum ([3H]-hypoxanthine incorporation); assay type: cell-based, chloroquine-sensitive (3D7w) clone of P. falciparum; details: read-out: IC50 (µM) Erythrocytic stage P. falciparum
Description: After 48 hours, [^3H]-hypoxanthine (Amersham) was added to each well and then plates were incubated for 24 hours. Parasites were harvested, and incorporation of radioactivity was determined by liquid scintillation counting (Beckman LS1701, les Ulis, France). The counts-per-minute (cpm) was adjusted relative to controls to obtain percentages of inhibition. […] This estimation was obtained with IC50 estimator software. For the assay, the parasites were synchronized by D-sorbitol treatment.

in vitro = details: human, TC50 (µM) Hepatic stage (rodent) P. yoelii, 50% toxic concentration, MTT assay
Description: (§1) A preliminary screening was performed consisting in the infection of human CD81 transfected hepatocarcinome cell line HepG2 (HepG2/CD81) with P. yoelii. IC50 (inhibiting concentration 50), TC50 (toxic concentration 50) and TI (therapeutic index, ratio TC50/IC50) were estimated for each drug tested. Selected molecules (small IC50, high TC50 and high TI) were analyzed in human hepatocytes. Briefly, HepG2 cells were plated in 96-well plates for 24 h prior to inoculation with 1x10^4 of P. yoelii sporozoites. Sporozoites-inoculated culture plates were centrifuged for 5 min at 1,500 rpm at 4°C in order to enhance the infection rate as described by Gruner (Gruner et al., 2005). After 3h at 37°C, the cultures were washed and further incubated in fresh medium for 48 h (P. yoelii) before quantification of infected cells in triplicate wells.
(§2) Toxicity was determined by using the colorimetric 3-(4,5-dimethylthiazol-2-yl)-2,5-diphenyltetrazolium bromide (MTT) assay (Mosman., 1983). Briefly, HepG2 cells cultures were prepared in 96-well plates as described above. Drugs were tested in triplicate wells at eight concentrations ranging from 6.4 × 10^-3 µM to 200 µM. One hundred microliters of 0.5 mg/ml MTT (5 mg/ml MTT in water diluted 10x in William's medium without fetal bovine serum) was added to each well, and the plates were incubated for 4 h (37°C, 5% CO2). The medium was discarded, and the cells were resuspended in ethanol and dimethyl sulfoxide (50/50, vol/vol). The plates were read in an enzyme-linked immunosorbent assay plate reader (550-nm absorbance wavelength and 620-nm reference wavelength). The results were expressed as the percent change in viability compared to drug-free control cultures. […] Each drug and concentration was tested at least in triplicate. The selectivity index (SI) was defined as the ratio of the TC50 to the IC50.

P. yoelii = test: In vitro activity against hepatic stage of P. yoelii (sporozoite-infected HepG2/CD81 cells or rodent hepatocytes, liver-schizont count); assay type: cell-based, P. yoelii (265 BY strain); details: rodent parasite P. yoelii, cultures arrested at 48 h
Description: (§3) Activity against pre-erythrocytic stages was tested by in vitro assays with the human parasite P. falciparum (NF54 strain) and the rodent parasite P. yoelii (265 BY strain). The rodent parasite P. yoelii is produced in the insectarium of the INSERM Unit U511 and human parasite P. falciparum was obtained from collaboration with R. Sauerwein.
(§4) Sporozoites were obtained from infected salivary glands of Anopheles stephensi mosquitoes fed on continuous culture of P. falciparum (coll R. Sauerwein, Netherlands), or on P. yoelii parasitized mice (insectarium of the INSERM Unit U511). After aseptic dissection, salivary glands were homogenized in a glass grinder and diluted in culture medium or sterile phosphate-buffered saline (PBS).
(§5) Primary cultures of rodent or human hepatocytes were prepared from liver segments taken from mouse or from adult patients undergoing partial hepatectomy. Hepatocytes were isolated using the two-step enzymatic perfusion technique (Guguen-Guillouzo et al., 1982) and were further purified on a discontinuous Percoll gradient. Then, hepatocytes were seeded in eight-chamber Lab-Tek permanox slides at a density of 1,4x10^5 cells per cm^2, and maintained under culture conditions as described in Mahmoudi et al., 2003. After complete adherence to culture plates, rodent and human hepatocytes were infected with P. yoelii or P. falciparum sporozoites, respectively, aseptically dissected from mosquitoes' salivary glands, as described above. Hepatocytes were inoculated with 6x10^4 sporozoites per Lab-Tek well. Compounds to be tested were added at the time of infection and/or after penetration of the sporozoites and at different concentrations (three wells per dilution). Every day, medium was replaced by fresh medium containing or not different concentrations of the molecules to be tested. Cultures were arrested at 48 hours (P. yoelii) or 6 days (P. falciparum) and cells were fixed with methanol. Liver-schizonts were quantified by microscopic examination after fluorescent labeling using a primary mouse antibody directed against Plasmodium heat shock protein-70 (Renia et al., 1990) produced in INSERM unit 511 and a secondary goat anti-mouse antibody conjugated with fluorescein isothiocyanate (Sigma Aldrich).

[2] = MTT toxicity assay reported with the erythrocytic stage (TC50), cells not named; assay type: cell-based; details: 50% toxic concentration, read-out: TC50 (µM) Erythrocytic stage P. falciparum
From the text: The selectivity index (SI) was defined as the ratio of the TC50 to the IC50.

HepG2 cells = test: in vitro; details: read-out: TC50 (µM) Hepatic stage (rodent) P. yoelii; 50% toxic concentration, MTT assay
Description: as §1, §2

P. falciparum [3] = test: In vitro activity against hepatic stage of P. falciparum in primary human hepatocytes (liver-schizont count); assay type: cell-based, P. falciparum (NF54 strain); details: cultures arrested at 6 days
Description: as §3, §4
as §5, with “Every day, medium was replaced by fresh medium containing or not different concentrations of the molecules to be tested. Cultures were arrested at 48 hours (P. yoelii) or 6 days (P. falciparum) and cells were fixed with methanol.” left out

[4] = MTT toxicity assay on human hepatocytes (TC50)
Description: Cytotoxic effect of the compounds was evaluated on human hepatocytes, obtained as described above. The colorimetric MTT assay was used (Mosman., 1983). Briefly, hepatocyte cultures were prepared in 96-well plates as described above. Drugs were tested in triplicate wells at eight concentrations ranging from 6.4 x 10^-3 µM to 200 µM. One hundred microliters of 0.5 mg/ml MTT (5 mg/ml MTT in water diluted 10x in William's medium without fetal bovine serum) was added to each well, and the plates were incubated for 4 h (37°C, 5% CO2). The medium was discarded, and the cells were resuspended in ethanol and dimethyl sulfoxide (50/50, vol/vol). The plates were read in an enzyme-linked immunosorbent assay plate reader (550-nm absorbance wavelength and 620-nm reference wavelength). The results were expressed as the percent change in viability compared to drug-free control cultures. […] Each drug and concentration was tested at least in triplicate. The selectivity index (SI) was defined as the ratio of the TC50 to the IC50.

[5] = Plasmodium yoelii, Hepatocyte, 48 h
[6] = Plasmodium falciparum, Erythrocyte, 72 h, ring stage parasitized erythrocytes, 3D7w clone, 48 h + 24 h with [3H]-hypoxanthine
[7] = ring stage parasitized erythrocytes, 3D7w clone, 48 h + 24 h with [3H]-hypoxanthine

SMILES	CC50 (in vitro) [µM]	CC50 [2] [µM]	IC50 (P. falciparum [1]; [6]) [µM]	IC50 (P. yoelii) [µM]	IC50 (P. falciparum [1]; [7]) [µM]	CC50 (HepG2 cells) [µM]	further results
CCN(CC)CCCC(C)Nc1ccnc2cc(Cl)ccc12 (centres unmarked) [Chloroquine, reference compound]							IC50 (P. falciparum [1]; Plasmodium falciparum, Erythrocyte, 72 h): 0.04 µM
COc1cc(NC(C)CCCN)c2ncccc2c1 (centres unmarked) [Primaquine, reference compound]	12.6						
COc1cccc(OC)c1OC(C)C(O)c1ccc2c(c1)OC(F)(F)O2 (centres unmarked) [drawing 70]	54.9	55	> 40				IC50 (P. yoelii; [5]): 20.1 µM
COc1cccc(OC)c1OC(C)C(O)c1ccc2c(c1)OC(F)(F)O2 (centres unmarked) [drawing 71]		53		20.2	> 40		
COc1cc(C)cc(OC)c1OC(C)C(O)c1ccc2c(c1)OC(F)(F)O2 (centres unmarked) [drawing 72]	56.8	57	13.6	19			
COc1cc(C)cc(OC)c1OC(C)C(O)c1ccc2c(c1)OC(F)(F)O2 (centres unmarked) [drawing 73]		53.7		5.62	13.5	53.7	
COc1cc(C(O)C(C)Oc2c(OC)cccc2OC)cc(OC)c1OC (centres unmarked) [drawing 74]		58	> 40	28.6		57.9	
COc1cc(C(O)C(C)Oc2c(OC)cccc2OC)cc(OC)c1OC (centres unmarked) [drawing 75]				2.52		0.126	
COc1cc(C(O)C(C)Oc2c(OC)cc(C)cc2OC)cc(OC)c1OC (centres unmarked) [drawing 76]	47	47	> 40	50.1			
COc1cc(C(O)C(C)Oc2c(OC)cc(C)cc2OC)cc(OC)c1OC (centres unmarked) [drawing 77]		49.5		0.0045 ± 0.005	> 40	49.5	IC50 (P. falciparum [3]; Plasmodium falciparum, Hepatocyte, 144 h): 0.38 µM; CC50 [4]: 125 µM
COc1cc(C(O)C(C)Oc2c(OC)cc(-c3ccccc3)cc2OC)cc(OC)c1OC (centres unmarked) [drawing 78]	> 50	50	11.5				IC50 (P. falciparum [3]): 0.02 µM; IC50 (P. yoelii; [5]): 3.54 ± 4.9 µM; CC50 [4]: 50 µM
COc1cc(C(O)C(C)Oc2c(OC)cc(-c3ccccc3)cc2OC)cc(OC)c1OC (centres unmarked) [drawing 79]		50		3.61 ± 4	20	> 50	IC50 (P. falciparum [3]): 0.007 µM
